# Results as given in ChEMBL document CHEMBL1201862, “PubChem BioAssay data set” (2004).
#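 96-well plates; 48 h exposure; 5 concentrations. Endpoints by linear interpolation between flanking doses. Not reached: highest tested concentration assigned. The concentration for 50% growth inhibition is given as GI50.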 The source made the active and inactive calls. No stated cut-off is given here; in the data, active = GI50 up to about 1.1 µM and inactive = higher.
# How the values were obtained:
# Experiment in all cases: NCI-60 cell line screen, 48 h
# UO-31 = test system: UO-31
# SNB-19 = test system: SNB-19
# IGROV-1 = test system: IGROV-1
# U-251 = test system: U-251
# A549 = test system: A549
# HCC 2998 = test system: HCC 2998
# SK-MEL-2 = test system: SK-MEL-2
# SNB-75 = test system: SNB-75
# RXF 393 = test system: RXF 393
# LOX IMVI = test system: LOX IMVI
# HCT-15 = test system: HCT-15
# OVCAR-5 = test system: OVCAR-5
# COLO 205 = test system: COLO 205
# OVCAR-8 = test system: OVCAR-8
# SK-MEL-28 = test system: SK-MEL-28
# Malme-3M = test system: Malme-3M
# 786-0 = test system: 786-0
# SF-295 = test system: SF-295
SMILES,GI50 (UO-31),GI50 (SNB-19),GI50 (IGROV-1),GI50 (U-251),GI50 (A549),GI50 (HCC 2998),GI50 (SK-MEL-2),GI50 (SNB-75),GI50 (RXF 393),GI50 (LOX IMVI),GI50 (HCT-15) [µM],GI50 (OVCAR-5),GI50 (COLO 205),GI50 (OVCAR-8),GI50 (SK-MEL-28),GI50 (Malme-3M),GI50 (786-0),GI50 (SF-295)
O=C(/C=C/c1ccccc1O)C(c1ccccc1)c1ccccc1,> 100 µM (inactive),> 100 µM (inactive),> 100 µM (inactive),> 100 µM (inactive),> 100 µM (inactive),> 100 µM (inactive),> 100 µM (inactive),20.1 µM (inactive),> 100 µM (inactive),24.1 µM (inactive),> 100,> 100 µM (inactive),39.3 µM (inactive),> 100 µM (inactive),> 100 µM (inactive),> 100 µM (inactive),51.1 µM (inactive),> 100 µM (inactive)
CCOc1ccccc1NC(=O)CCC(=O)NN,> 100 µM (inactive),> 100 µM (inactive),> 100 µM (inactive),> 100 µM (inactive),> 100 µM (inactive),> 100 µM (inactive),> 100 µM (inactive),> 100 µM (inactive),> 100 µM (inactive),> 100 µM (inactive),> 100,> 100 µM (inactive),> 100 µM (inactive),> 100 µM (inactive),> 100 µM (inactive),> 100 µM (inactive),> 100 µM (inactive),> 100 µM (inactive)
C[N+]1(C)C/C(=C/c2ccc(F)cc2)C(=O)/C(=C\c2ccc(F)cc2)C1,> 100 µM (inactive),49.3 µM (inactive),26.1 µM (inactive),16.4 µM (inactive),74 µM (inactive),> 100 µM (inactive),56.8 µM (inactive),53.8 µM (inactive),> 100 µM (inactive),> 100 µM (inactive),> 100,> 100 µM (inactive),60.7 µM (inactive),47.2 µM (inactive),15 µM (inactive),42.1 µM (inactive),49.4 µM (inactive),50.6 µM (inactive)
c1ccc2c(c1)C1=NCCN1c1ccccc1-2,2.77 µM (inactive),3.46 µM (inactive),3.44 µM (inactive),3.15 µM (inactive),3.97 µM (inactive),4.46 µM (inactive),3.19 µM (inactive),3.47 µM (inactive),1.56 µM (inactive),2.95 µM (inactive),3.1,3.47 µM (inactive),1.38 µM (inactive),2.51 µM (inactive),3.91 µM (inactive),2.64 µM (inactive),2.6 µM (inactive),5.09 µM (inactive)
